Tested on: U937 cell line (human histiocytic lymphoma cell line)
Experiment: U937 cell viability assay (TNF-α + Z-VAD-FMK induced necroptosis)
Assay type: cell-based
Conditions: Homo sapiens, U-937; U937 cells, hTNF-α 0.1 μg/mL + Z-VAD-FMK 50 μM, 20 hours, CellTiter-Glo
Protocol: U937 cell line (human histiocytic lymphoma cell line): purchased from ATCC (American Type Culture Collection) Cell Bank, cultured in a 5% CO2, 37° C. incubator, and RPMI 1640 medium which contains L-glutamine, 1.5 g/L sodium bicarbonate, 2.383 g/L HEPES solution, 0.11 g/L sodium pyruvate and 4.5 g/L glucose, plus 10% fetal bovine serum (FBS) was used. • RPMI 1640 medium: GIBCO, Cat #A10491-01; • Fetal bovine serum (FBS): GIBCO, Cat #10099-141C; • Dimethyl sulfoxide (DMSO): Sigma, Cat #D2650; • Recombinant Human TNF-alpha Protein (hTNF-α): R&D system, Cat #210-TA-100; • Pan-Caspase inhibitor (Z-VAD-FMK): Selleckchem, Cat #S7023; • CellTiter-Glo 2.0 Cell Viability Assay kit: Promega, Cat #G9242; • Microwell plate reader: Envision, Perkin Elmer; • 96-well plate: Corning, Cat #3917.
The U937 cells at the logarithmic phase were taken out, centrifuged to remove the medium, washed with PRMI 1640 medium containing 1% FBS, and diluted with 1% FBS-containing RPMI 1640 medium to 2.5×10^5 cells/ml, inoculated at 70 μL/well into a 96-well plate, i.e., 1.75×10^4 cells/well. The plate was cultured in a 5% CO2, 37° C. cell incubator. After incubating for 1 hour, the test compound was diluted to the corresponding concentrations using DMSO with 3-fold serial dilution, then the corresponding concentration of DMSO diluted solution was diluted into 1% FBS-containing RPMI 1640 medium, and 10 μL/well of the diluted test compound with different concentrations (final concentration of test compound was 1.0, 0.333, 0.111, 0.037, 0.012, 0.004, 0.0014 and 0.0005 μM, while final concentration of DMSO was 0.3%) or 10 μL/well control solution (3% DMSO) were added to the cell culture system respectively, with the total volume being 80 μL/well; Then 10 μL of Z-VAD-FMK solution diluted with 1% FBS-containing RPMI 1640 medium (final concentration of 50 μM) or 10 μL of control solution (2.5% DMSO) was added to each well, with the total volume being 90 μL/well. The plate was incubated in a 5% CO2, 37° C. cell culture incubator for 1 hour.
After being cultured for 1 hour, 10 μL of human recombinant TNF-α protein diluted with 1% FBS-containing RPMI 1640 medium (final concentration of 0.1 μg/mL) or 10 μL/well control solution (1% FBS-containing RPMI 1640 medium) was added to each well. The plate was incubated in a 5% CO2, 37° C. cell culture incubator for 20 hours.
The cell culture plate was taken out from the incubator, and left to stand at room temperature for 30 minutes. Meanwhile, CellTiter-Glo viability assay kit was put from freezer to room temperature, and 50 μL of CellTiter-Glo reagent was added to all wells, the plate was shaken for 1 minutes, protected from light at room temperature for 10 minutes then read the plate on Envision to get the luminescence signal.
The 96-well plate in the dark was taken out, and the chemiluminescence was determined using the Envision microwell plate reader as the signal value of each well.
The mean signal value of the wells of the mixed solution of recombinant human TNF-alpha protein (final concentration of 0.1 μg/mL) and Pan-Caspase inhibitor (final concentration of 50 μM) was used as the lower value, and the mean signal value of the wells without stimulation was used as the upper value. According to the signal value of each well, the inhibition rate of each concentration of every compound was calculated, and the IC50 value of compound was obtained by Model 205 in XL-Fit 5.3 software (ID Business Solutions Limited).
Inhibition rate %=[(Luminescence readout of treated compound−Luminescence readout of positive control)/(Luminescence readout of negative control−Luminescence readout of positive control)]×100%, wherein

Structure (SMILES)	IC50 [nM]
CC(C)n1cncc(-c2ccc(C3(NC(=O)c4ncc5cnn(C(C)C6CC6)c5n4)CC3)cc2)c1=O (racemic) [Compound 59, 1-(1-cyclopropylethyl)-N-(1-(4-(1-i-propyl-6-oxo-1,6-dihydropyrimidin-5-yl)phenyl)cyclopropyl)-1H-pyrazolo[3,4-d]pyrimidine-6-carboxamide]	3
CC(C)n1ncc2cnc(C(=O)NC3(c4ccc(-c5cncn([C@H](C)C(F)(F)F)c5=O)cc4F)CC3)nc21 (stereo in doubt) [Compound 46]	2
CC(C)n1ncc2cnc(C(=O)NC3(c4ccc(-c5cncn([C@@H](C)C(F)(F)F)c5=O)cc4F)CC3)nc21 (stereo in doubt) [Compound 47]	2
CC(C)n1ncc2cnc(C(=O)NC3(c4ccc(-c5cncn(C6CCOC6)c5=O)cc4)CC3)nc21 (stereo in doubt) [Compound 80, (R)-1-i-propyl-N-(1-(4-(6-oxo-1-(tetrahydrofuran-3-yl)-1,6-dihydropyrimidin-5-yl)phenyl)cyclopropyl)-1H-pyrazolo[3,4-d]pyrimidine-6-carboxamide]	9
CC(C)n1ncc2cnc(C(=O)NC3(c4ccc(-c5cncn(C6CCOC6)c5=O)cc4)CC3)nc21 (stereo in doubt) [Compound 81, (S)-1-i-propyl-N-(1-(4-(6-oxo-1-(tetrahydrofuran-3-yl)-1,6-dihydropyrimidin-5-yl)phenyl)cyclopropyl)-1H-pyrazolo[3,4-d]pyrimidine-6-carboxamide]	8
CC(C#N)n1cncc(-c2ccc(C3(NC(=O)c4ncc5cnn(C(C)C)c5n4)CC3)cc2)c1=O (stereo in doubt) [Compound 82, (R)—N-(1-(4-(1-(1-cyanoethyl)-6-oxo-1,6-dihydropyrimidin-5-yl)phenyl)cyclopropyl)-1-i-propyl-1H-pyrazolo[3,4-d]pyrimidine-6-carboxamide]	18
CC(C#N)n1cncc(-c2ccc(C3(NC(=O)c4ncc5cnn(C(C)C)c5n4)CC3)cc2)c1=O (stereo in doubt) [Compound 83, (S)—N-(1-(4-(1-(1-cyanoethyl)-6-oxo-1,6-dihydropyrimidin-5-yl)phenyl)cyclopropyl)-1-i-propyl-1H-pyrazolo[3,4-d]pyrimidine-6-carboxamide]	17
CC(C)n1ncc2cnc(C(=O)NC3(c4ccc(-c5cncn(C)c5=O)cc4)CC3)nc21 [Compound 1, 1-isopropyl-N-(1-(4-(1-methyl-6-oxo-1,6-dihydropyrimidin-5-yl)phenyl)cyclopropyl)-1H-pyrazolo[3,4-d]pyrimidine-6-carboxamide]	21
CC(C)n1ncc2cnc(C(=O)NC3(c4ccc(-c5cncn(C)c5=O)cn4)CC3)nc21 [Compound 2]	170
Cn1cncc(-c2ccc(C3(NC(=O)c4nnc(Cc5ccccc5)[nH]4)CC3)cc2)c1=O [Compound 3]	21
Cn1cncc(-c2ccc(C3(NC(=O)c4ncc5cnn(-c6ccccc6)c5n4)CC3)cc2)c1=O [Compound 4]	17
Cn1cncc(-c2ccc(C3(NC(=O)c4cc(Cc5ccccc5)on4)CC3)cc2)c1=O [Compound 5]	24
CC(C)Cc1nc(C(=O)NC2(c3ccc(-c4cncn(C)c4=O)cc3)CC2)ncc1Cl [Compound 6]	21
Cn1cncc(-c2ccc(C3(NC(=O)c4ncn(Cc5ccccc5)n4)CC3)cc2)c1=O [Compound 8]	14
Cn1cncc(-c2ccc(C3(NC(=O)c4noc(Cc5ccccc5)n4)CC3)cc2)c1=O [Compound 9]	52
Cn1cncc(-c2ccc(C3(NC(=O)c4ncc(Cc5ccccc5)o4)CC3)cc2)c1=O [Compound 10]	8
Cn1cncc(-c2ccc(C3(NC(=O)c4nnc(Cc5ccccc5)o4)CC3)cc2)c1=O [Compound 11]	139
CC(C)n1ncc2cnc(C(=O)NC3(c4ccc(-c5cncn(C6CC6)c5=O)cc4)CC3)nc21 [Compound 12]	18
CC(C)n1cncc(-c2ccc(C3(NC(=O)c4nnc(Cc5ccccc5)o4)CC3)cc2)c1=O [Compound 13]	4
CC(C)n1cncc(-c2ccc(C3(NC(=O)c4nc5n(n4)[C@@H](c4ccccc4)CC5)CC3)cc2)c1=O [Compound 15]	20

Structure (SMILES)	IC50 [nM]
CC(C)n1cncc(-c2ccc(C3(NC(=O)c4nc5n(n4)[C@H](c4ccccc4)CC5)CC3)cc2)c1=O [Compound 16]	2
CC(C)n1cncc(-c2ccc(C3(NC(=O)c4ncn(Cc5ccccc5)n4)CC3)cc2)c1=O [Compound 17]	1
Cn1cncc(-c2ccc(C3(NC(=O)c4nnc(Cc5c(F)cccc5F)[nH]4)CC3)cc2)c1=O [Compound 18]	82
CC(C)n1cncc(-c2ccc(C3(NC(=O)c4ncc5cnn(-c6ccccc6)c5n4)CC3)cc2)c1=O [Compound 19]	3
CC(C)Cc1nc(C(=O)NC2(c3ccc(-c4cncn(C(C)C)c4=O)cc3)CC2)ncc1Cl [Compound 22]	3
CC(C)n1ncc2cnc(C(=O)NC3(c4ccc(-c5cncn(C)c5=O)c(F)c4)CC3)nc21 [Compound 23, N-(1-(3-fluoro-4-(1-methyl-6-oxo-1,6-dihydropyrimidin-5-yl)phenyl)cyclopropyl)-1-isopropyl-1H-pyrazolo[3,4-d]pyrimidine-6-carboxamide]	57
CC(C)n1ncc2cnc(C(=O)NC3(c4ccc(-c5cncn(C)c5=O)c(Cl)c4)CC3)nc21 [Compound 25]	32
CC(C)n1ncc2cnc(C(=O)NC3(c4ccc(-c5cncn(C)c5=O)cc4F)CC3)nc21 [Compound 26]	12
CC(C)n1ncc2cnc(C(=O)NC3(c4ccc(-c5cncn(C)c5=O)cc4)CC3)cc21 [Compound 28, 1-isopropyl-N-(1-(4-(1-methyl-6-oxo-1,6-dihydropyrimidin-5-yl)phenyl)cyclopropyl)-1H-pyrazolo[4,3-c]pyridine-6-carboxamide]	135
CC(C)n1cncc(-c2ccc(C3(NC(=O)c4ncc5cnn(C(C)C)c5n4)CC3)cc2)c1=O [Compound 29, 1-isopropyl-N-(1-(4-(1-isopropyl-6-oxo-1,6-dihydropyrimidin-5-yl)phenyl)cyclopropyl)-1H-pyrazolo[3,4-d]pyrimidine-6-carboxamide]	3
CC(C)n1ncc2cnc(C(=O)NC3(c4ccc(-c5cnc(N)n(C)c5=O)cc4)CC3)nc21 [Compound 30]	8
CC(C)n1cncc(-c2ccc(C3(NC(=O)c4ncc5cnn(C(C)C)c5n4)CC3)cc2Cl)c1=O [Compound 33]	10
CC(C)n1cncc(-c2ccc(C3(NC(=O)c4ncc5cnn(C(C)C)c5n4)CC3)c(F)c2)c1=O [Compound 34]	7
CC(C)n1cncc(-c2ccc(C3(NC(=O)c4ncc5cnn(C(C)C)c5n4)CC3)cc2F)c1=O [Compound 35]	11
CC(C)n1ncc2cnc(C(=O)NC3(c4ccc(-c5cncn(CC6CC6)c5=O)cc4)CC3)nc21 [Compound 36]	3
CCn1cncc(-c2ccc(C3(NC(=O)c4ncc5cnn(C(C)C)c5n4)CC3)cc2)c1=O [Compound 37]	14
CC(C)n1ncc2cnc(C(=O)NC3(c4ccc(-c5cncn(CC(F)(F)F)c5=O)cc4)CC3)nc21 [Compound 38]	13
CC(C)n1ncc2cnc(C(=O)NC3(c4ccc(-c5cncn([C@H](C)C(F)(F)F)c5=O)cc4)CC3)nc21 [Compound 39]	6
CC(C)n1ncc2cnc(C(=O)NC3(c4ccc(-c5cncn([C@@H](C)C(F)(F)F)c5=O)cc4)CC3)nc21 [Compound 40]	12
CC(C)n1ncc2cnc(C(=O)NC3(c4ccc(-c5cncn(C6COC6)c5=O)cc4)CC3)nc21 [Compound 41]	64

Reference: patent publication US20240002388A1, “PYRIMIDINONE COMPOUNDS AND USES THEREOF” (HUTCHISON MEDIPHARMA LIMITED, priority 2020, published 2024)
